Assay results as given in article PMC11964921 (npj Drug Discovery, 2025).
≈ marks a conversion by molar mass, not a printed value. Like-named read-outs stand apart in the source and are kept apart here.

Experiments:
[1] = tested on: M. tuberculosis H37Rv-ΔcydAB; set-up: species or system mouse (Balb/cBy); settings: mouse, in vivo, 25 mg/kg
[2] = tested on: M. tuberculosis H37Rv-ΔcydAB; assay: microbe, parasite or virus in culture; type: cell-based; settings: Mycobacterium tuberculosis; for MIC50: 120 h
[3] = tested on: isolated membranes from M. smegmatis; settings: cited from earlier work
[4] = tested on: isolated membranes from M. tuberculosis; settings: cited from earlier work
whole cell M. smegmatis = settings: cited from earlier work
[5] = tested on: cytochrome bd knockout strain of M. smegmatis; settings: cited from earlier work
[6] = tested on: M. tuberculosis H37Rv Pasteur; assay: MIC determination, agar dilution method; type: cell-based
M. tuberculosis Erdman = assay: MIC determination, agar dilution method; type: cell-based
[7] = tested on: membranes from M. smegmatis wild-type strain MC2155; type: biochemical; settings: read-out: IC50 oxygen consumption
[8] = tested on: membranes from M. smegmatis cytochrome bd knockout strain (ΔcydAB); type: biochemical; settings: read-out: IC50 oxygen consumption
[9] = tested on: membranes from M. smegmatis cytochrome bc knockout strain (ΔqcrCAB); type: biochemical

SMILES | reduction in bacterial load (lungs) [1] | MIC [2] | MIC50 [2] | IC50 [3] | IC50 [4] | MIC (whole cell M. smegmatis) | MIC [5] | MIC ([6]; Mycobacterium tuberculosis, H37Rv reference strain, read-out: MIC) | MIC ([6]; Mycobacterium tuberculosis, strain H37Rv Pasteur, <1% of inoculum able to grow, read-out: MIC) | MIC ([6]; strain H37Rv Pasteur, <1% of inoculum able to grow) | MIC (M. tuberculosis Erdman; Mycobacterium tuberculosis, Erdman reference strain, read-out: MIC) | MIC (M. tuberculosis Erdman; Mycobacterium tuberculosis, strain Erdman, read-out: MIC) | MIC (M. tuberculosis Erdman; strain Erdman) | IC50 [7] | IC50 [8] | reduction of activity (oxygen consumption) [9]
COc1nc2ccc(Br)cc2cc1[C@@H](c1ccccc1)[C@@](O)(CCN(C)C)c1cccc2ccccc12 [bedaquiline, reference compound] | 4.6 log |  |  |  |  |  |  |  |  |  |  |  |  |  |  | 
CCc1nc2ccc(Cl)cn2c1C(=O)NCc1ccc(N2CCC(c3ccc(OC(F)(F)F)cc3)CC2)cc1 [Q203] |  | ~2 nM (≈ 1.11 ng/mL) | 2 ± 0.1 nM (≈ 1.11 ng/mL) | ~20 nM | ~20 nM | > 50000 nM | ~ 2.5 μM |  |  |  |  |  |  |  |  | 
CCc1nc2ccc(Cl)cn2c1C(=O)NCc1ccc(C2CC3(C2)CN(S(=O)(=O)C(F)(F)F)C3)cc1 [JNJ-2901] |  |  | 2.5 ± 0.1 nM (≈ 1.35 ng/mL) |  |  |  |  | > 16 nM | > 8 ng/mL | >8 ng/mL | > 16 nM | > 8 ng/mL | >8 ng/mL | 89 ± 54 nM | 60 ± 26 nM | 20%
